From paper PMC6656545 (Science Advances, 2019)
Where two headings read alike, the source gives them in different places. Where no end group is shown, it is not given here.

Assays:
BALB/c mice [1] = experiment: Multidose cumulative toxicity, mouse survival; format: in vivo; details: repeated maximum sublethal doses
[2] = Single-dose in vivo toxicity, LD50 determination; parameters: species or system mouse; details: BALB/c, mouse, in vivo, ip
[3] = system: panel of 30 type cultures; experiment: I_score ranking from the MICs of 30 type cultures; details: number of cultures inhibited with the lowest MIC among the five peptides
[4] = cited from earlier work
[5] = in 4 hours; cited from earlier work
[6] = clinical dose, human volunteers; cited from earlier work
[7] = clinical dose, mouse serum; cited from earlier work
A. baumannii (P1270) [8] = experiment: Radiolabeled phosphate leakage radioassay; format: cell-based; details: in 60 min; Ω76 32 mg/liter, colistin 5 mg/liter
A. baumannii (P1270) [9] = experiment: Time-kill curves in ex vivo whole human blood; details: in 60 min; Ω76 32 mg/liter, colistin 5 mg/liter
[10] = cited from earlier work; remark: listed apart in the source
BALB/c mice [11] = experiment: Single-dose in vivo toxicity, LD50 determination; parameters: species or system mouse
BALB/c mice [12] = experiment: Kidney and liver histopathology after multidose treatment; format: in vivo, mouse; details: after 11 maximum sublethal doses
[13] = young patient cohort, Walter Reed Army Medical Center

H-GIGKFLKKAKKFGKAFVKILKK-NH2 [Pexiganan]
mortality in mice (BALB/c mice [1]): 100%
LD50 at 5 days [2]: 60 mg/kg

IKALGKKLRKGKKKIGKKVK [Ω93]
I_score [3]: 1

lactoferrampin
hemolytic properties [4]: display hemolytic properties

C[C@@H](O)[C@H]1C(=O)N2C(C(=O)O)=C(S[C@@H]3CN[C@H](C(=O)N(C)C)C3)[C@H](C)[C@H]12 [meropenem]
CFU reduction [5]: 100 fold
time above MIC concentrations in serum [6]: 5 h

gramicidin S
hemolytic properties [4]: display hemolytic properties

colistin
time above MIC concentrations in serum [7]: 100 min
intracellular phosphate lost (A. baumannii (P1270) [8]): 25%
mortality in mice (BALB/c mice [1]): 50%
CFU reduction (A. baumannii (P1270) [9]): 32 fold
acute kidney injury ([10]; Korean elderly patient cohort, treated for ≥72 hours): 54.6%
acute kidney injury ([10]; Turkish elderly patient cohort): 46.1%
acute kidney injury [10, 13]: 45%
cessation of treatment due to nephrotoxicity [10, 13]: 21%
LD50 (median lethal dose) (BALB/c mice [11]; intraperitoneal, monitored 5 days, linear interpolation): 30 mg/kg
maximum sublethal dose (BALB/c mice [11]; intraperitoneal, single dose): 16 mg/kg
mortality (mice) (BALB/c mice [11]; single dose of 32 mg/kg): 3 of 5
kidney histology (BALB/c mice [12]): extensive renal damage
liver histology (BALB/c mice [12]): displaying no damage

melittin
hemolytic properties [4]: display hemolytic properties
